Laboratory results published in ChEMBL document CHEMBL1149325 (J Med Chem, 2004).

Key:
Mus musculus [1] = species on record: Mus musculus
Description: Percentage of compound bound to serum protein was determined

Mus musculus [2] = experiment: Area under curve was determined for compound after intraperitoneal administration in mice at 18 uM/kg; format: functional, organism-based
Mus musculus [3] = species on record: Mus musculus; remark: listed apart in the source
Description: Maximum tolerated dose in A2780 tumor in mice after intraperitoneal administration daily for 8 days

Mus musculus [4] = experiment: Mean-residence time was determined for compound intravenous administration in mice at 23 uM/kg; format: functional, organism-based
P388 [5] = tested on: P388
Description: Increase in life span of the treated mice to those of control was determined

in vivo = settings: mouse, iv, 23 umol/kg
Description: Cmax in mice at 23 umol/kg i.v. administration

Mus musculus [6] = experiment: Microsomal stability was determined in mouse liver microsomes after intravenous administration in mice at 23 uM/kg; format: functional
Mus musculus [7] = species on record: Mus musculus; experiment: Log cell kill for A2780 tumor in mice; […]; format: functional
Mus musculus [8] = experiment: Half life after intravenous administration in mice at 23 uM/kg; format: functional, organism-based
Mus musculus [9] = experiment: Tmax in mice at 23 uM/kg i.v. administration; format: functional, organism-based
P388 [10] = tested on: P388; remark: listed apart in the source
Description: Maximum tolerated dose was determined against P338 tumor in mice after intraperitoneal administration daily for 7 days

[11] = molecular target: Cyclin-dependent kinase 2/cyclin E (Homo sapiens, UniProt P24941)
Mus musculus [12] = experiment: Microsomal stability was determined in mouse liver microsomes after intraperitoneal administration in mice at 18 uM/kg; format: functional
Mus musculus [13] = experiment: Half life after intraperitoneal administration in mice at 18 uM/kg; format: functional, organism-based
Mus musculus [14] = experiment: Tmax in mice at 18 uM/kg i.p. administration; format: functional, organism-based
Mus musculus [15] = species on record: Mus musculus; experiment: Log cell kill for A2780 tumor in mice; format: functional
[16] = Cmax in mice at 18 umol/kg i.p. administration; format: ADME, organism-based; design: dose 18 umol/kg, route intraperitoneal; settings: mouse, in vivo, ip
Mus musculus [17] = experiment: Mean-residence time was determined for compound after intraperitoneal administration in mice at 18 uM/kg; format: functional, organism-based
Mus musculus [18] = experiment: Tmax in mice at 25 uM/kg i.p. administration; format: functional, organism-based
Mus musculus [19] = experiment: Area under curve was determined for compound after intraperitoneal administration in mice at 25 uM/kg; format: functional, organism-based
[20] = Cmax in mice at 25 umol/kg i.p. administration; format: ADME, organism-based; design: dose 25 umol/kg, route intraperitoneal; settings: mouse, in vivo, ip
Mus musculus [21] = experiment: Half life after intraperitoneal administration in mice at 25 uM/kg; format: functional, organism-based
Mus musculus [22] = experiment: Mean-residence time was determined for compound after intraperitoneal administration in mice at 25 uM/kg; format: functional, organism-based
[23] = Cmax in mice at 24 umol/kg i.p. administration; format: ADME, organism-based; design: dose 24 umol/kg, route intraperitoneal; settings: mouse, in vivo, ip
Mus musculus [24] = experiment: Mean-residence time was determined for compound after intraperitoneal administration in mice at 26 uM/kg; format: functional, organism-based
[25] = Cmax in mice at 26 umol/kg i.p. administration; format: ADME, organism-based; design: dose 26 umol/kg, route intraperitoneal; settings: mouse, in vivo, ip
Mus musculus [26] = experiment: Area under curve was determined for compound after intraperitoneal administration in mice at 26 uM/kg; format: functional, organism-based
Mus musculus [27] = experiment: Half life after intraperitoneal administration in mice at 26 uM/kg; format: functional, organism-based

SMILES: CC(C)(C)c1cnc(CSc2cnc(NC(=O)C3CCN(S(C)(=O)=O)CC3)s2)o1
- Binding (Mus musculus [1]): 84%

SMILES: CC(C)(C)OC(=O)N1CCC(C(=O)Nc2ncc(SCc3ncc(C(C)(C)C)o3)s2)CC1
- Binding (Mus musculus [1]): 99%

SMILES: CC(C)(C)c1cnc(CSc2cnc(NC(=O)[C@H]3CC[C@@H](N)CC3)s2)o1
- AUC (Mus musculus [2]): 4660 ng·h/mL
- MTD (Mus musculus [3]): 8 mg/kg
- MRT (Mus musculus [4]): 2.2 h
- Survival (P388 [5]): 179%
- Binding (Mus musculus [1]): 68%
- Cmax (in vivo): 13600 nM
- Activity (Mus musculus [6]): 0.07 nM min-1 (mg of protein)-1
- LCK (Mus musculus [7]): 1.7
- T1/2 (Mus musculus [8]): 2.2 h
- Tmax (Mus musculus [9]): 6 min
- MTD (P388 [10]): 8 mg/kg

SMILES: CC(C)(C)c1cnc(CSc2cnc(NC(=O)[C@H]3CC[C@H](N)CC3)s2)o1
- Binding (Mus musculus [1]): 86%

SMILES: CC(C)(C)c1cnc(CSc2cnc(NC(=O)Cc3ccccc3)s2)o1
- IC50 [11]: 3 µM

SMILES: CC(C)(C)c1cnc(CSc2cnc(NC(=O)Cc3ccc(CNC(CO)CO)cc3)s2)o1
- AUC (Mus musculus [2]): 1320 ng·h/mL
- Activity (Mus musculus [12]): 0.22 nM min-1 (mg of protein)-1
- MTD (Mus musculus [3]): 26 mg/kg
- Survival (P388 [5]): 140%
- T1/2 (Mus musculus [13]): 1.8 h
- Binding (Mus musculus [1]): 79%
- Tmax (Mus musculus [14]): 1 h
- LCK (Mus musculus [15]): 3.3
- Cmax [16]: 800 nM
- MRT (Mus musculus [17]): 2.9 h
- MTD (P388 [10]): 32 mg/kg

SMILES: CN1CCC(C(=O)Nc2ncc(SCc3ncc(C(C)(C)C)o3)s2)CC1
- Tmax (Mus musculus [18]): 0.5 h
- AUC (Mus musculus [19]): 473 ng·h/mL
- Cmax [20]: 1100 nM
- Binding (Mus musculus [1]): 75%
- T1/2 (Mus musculus [21]): 0.7 h
- MRT (Mus musculus [22]): 1.1 h

SMILES: CC(C)(C)c1cnc(CSc2cnc(NC(=O)C3CCCCC3)s2)o1
- IC50 [11]: 300 µM

SMILES: CC(C)(C)c1cnc(CSc2cnc(NC(=O)C3CCN(CCO)CC3)s2)o1
- Tmax (Mus musculus [18]): 0.5 h
- Survival (P388 [5]): 140%
- AUC (Mus musculus [19]): 764 ng·h/mL
- Binding (Mus musculus [1]): 75%
- Cmax [23]: 1100 nM
- T1/2 (Mus musculus [21]): 1.9 h
- MTD (P388 [10]): 22.5 mg/kg
- MRT (Mus musculus [22]): 2.4 h

SMILES: CC(=O)Nc1ncc(SCc2ncc(C(C)(C)C)o2)s1
- Binding (Mus musculus [1]): 83%
- IC50 [11]: 5 µM

SMILES: CC(C)(C)c1cnc(CSc2cnc(NC(=O)C3CCCNC3)s2)o1 (configuration not stated)
- MTD (Mus musculus [3]): 22 mg/kg
- Survival (P388 [5]): 152%
- MRT (Mus musculus [24]): 3.5 h
- Cmax [25]: 3500 nM
- Binding (Mus musculus [1]): 82%
- AUC (Mus musculus [26]): 4600 ng·h/mL
- LCK (Mus musculus [15]): 1.6
- T1/2 (Mus musculus [27]): 2.2 h
- MTD (P388 [10]): 20 mg/kg
